Test results from the NIST ThermoML archive (doi:10.1021/je034102r).

Experiment: molar heat capacity at constant pressure
Details: 101.33 kPa, Liquid, heat bridge-scanning calorimeter

CCCCn1cc[n+](C)c1.F[P-](F)(F)(F)(F)F [1-butyl-3-methylimidazolium hexafluorophosphate]
Details	molar heat capacity at constant pressure [J/K/mol]
300.05 K	409.22
300.17 K	409.79
300.3 K	410.08
300.43 K	410.08
300.55 K	410.36
300.81 K	410.36
300.94 K	410.36
301.07 K	410.64
301.19 K	410.93
301.32 K	410.93
301.45 K	411.21
301.57 K	410.93
301.7 K	411.5
301.83 K	411.5
301.95 K	411.5
302.08 K	411.78
302.35 K	412.06
302.48 K	412.06
302.61 K	412.06
302.73 K	412.35
302.86 K	412.35
302.99 K	412.35
303.12 K	412.35
303.24 K	412.92
303.37 K	412.92
303.63 K	413.2
303.75 K	413.2
303.89 K	413.2
304.02 K	413.2
304.15 K	413.2
304.27 K	413.2
304.4 K	413.49
304.53 K	413.49
304.66 K	413.77
304.78 K	414.05
304.91 K	414.05
305.19 K	414.34
305.31 K	414.34
305.44 K	414.34
305.57 K	414.62
305.7 K	414.91
305.82 K	414.62
305.95 K	414.91
306.08 K	415.19
306.2 K	415.19
306.46 K	415.19
306.59 K	415.19
306.72 K	415.47
306.84 K	415.47
306.97 K	415.47
307.1 K	415.76
307.22 K	415.76
307.35 K	416.33
307.48 K	415.76
307.61 K	416.04
307.73 K	416.04
308.01 K	416.04
308.13 K	416.61
308.26 K	416.33
308.39 K	416.61
308.51 K	416.61
308.64 K	416.9
308.77 K	416.61
308.89 K	416.61
309.02 K	416.9
309.28 K	416.9
309.41 K	417.18
309.53 K	417.46
309.66 K	417.46
309.8 K	417.46
309.93 K	417.46
310.05 K	417.46
310.18 K	417.46
310.31 K	417.75
310.44 K	417.75
310.56 K	418.03
310.84 K	418.32
310.97 K	418.32
311.09 K	418.32
311.22 K	418.32
311.35 K	418.6
311.47 K	418.32
311.6 K	418.6
311.73 K	418.6
311.86 K	418.32
312.11 K	418.6
312.24 K	418.6
312.37 K	418.88
312.49 K	418.88
312.62 K	419.17
312.75 K	419.17
312.87 K	419.45
313 K	419.45
313.13 K	419.45
313.25 K	419.45
313.38 K	419.74
313.65 K	420.02
313.78 K	420.02
313.91 K	420.02
314.04 K	420.02
314.16 K	420.02
314.29 K	420.02
314.42 K	420.31
314.54 K	420.59
314.67 K	420.59
314.93 K	420.59
315.05 K	420.59
315.18 K	420.87
315.31 K	420.87
315.43 K	420.87
315.56 K	420.87
315.7 K	420.87
315.82 K	420.87
315.95 K	421.16
316.08 K	420.87
316.2 K	421.16
316.48 K	421.16
316.6 K	421.44
316.73 K	421.73
316.86 K	421.73
316.98 K	421.73
317.11 K	421.73
317.24 K	421.73
317.36 K	421.73
317.49 K	421.44
317.75 K	422.01
317.88 K	422.01
318 K	422.29
318.13 K	422.29
318.26 K	422.58
318.38 K	422.58
318.51 K	422.58
318.64 K	422.58
318.76 K	422.86
318.89 K	422.58
319.02 K	423.15
319.29 K	422.86
319.42 K	422.86
319.54 K	422.86
319.67 K	422.86
319.8 K	422.86
319.92 K	422.86
320.05 K	423.15
320.18 K	423.15
320.3 K	423.15
320.56 K	423.43
320.69 K	423.43
320.81 K	423.72
320.94 K	423.72
321.06 K	423.72
321.19 K	424
321.32 K	424
321.44 K	424
321.57 K	424
321.71 K	424
321.83 K	424.28
322.11 K	424.28
322.23 K	424.28
322.36 K	424
322.49 K	424
322.61 K	424
322.74 K	424.28
322.87 K	424.28
322.99 K	424.57
323.12 K	424.57
323.38 K	424.57
323.5 K	424.57
323.63 K	424.85
323.76 K	424.85
323.88 K	424.85
324.01 K	425.14
324.14 K	425.14
324.26 K	425.14
324.39 K	425.42
324.51 K	425.42
324.64 K	425.42
324.91 K	425.71
325.04 K	425.71
325.17 K	425.71
325.29 K	425.71
325.42 K	425.71
325.54 K	425.99
325.67 K	425.71
325.8 K	425.99
325.92 K	426.27
326.18 K	426.27
326.31 K	426.27
326.43 K	426.27
326.56 K	426.56
326.68 K	426.56
326.81 K	426.27
326.94 K	426.56
327.06 K	426.56
327.19 K	426.56
327.31 K	426.56
327.44 K	426.84
327.72 K	427.13
327.85 K	427.13
327.98 K	427.13
328.1 K	427.13
328.23 K	427.41
328.35 K	427.41
328.48 K	427.41
328.61 K	427.41
328.73 K	427.41
328.99 K	427.69
329.11 K	427.69
329.24 K	427.98
329.37 K	427.69
329.49 K	427.98
329.62 K	427.98
329.74 K	428.26
329.87 K	428.26
330 K	428.26
330.12 K	427.98
330.25 K	428.26
330.52 K	428.55
330.65 K	428.55
330.77 K	428.55
330.9 K	428.55
331.03 K	428.55
331.15 K	428.55
331.28 K	428.83
331.4 K	429.12
331.53 K	429.12
331.79 K	429.12
331.91 K	429.12
332.04 K	429.12
332.16 K	429.12
332.29 K	429.12
332.42 K	429.4
332.54 K	429.4
332.67 K	429.4
332.79 K	429.4
332.92 K	429.4
333.05 K	429.4
333.32 K	429.68
333.45 K	429.68
333.58 K	429.97
333.71 K	429.97
333.83 K	429.97
333.96 K	429.97
334.08 K	429.97
334.21 K	429.97
334.34 K	429.97
334.59 K	430.25
334.72 K	430.25
334.84 K	430.25
334.97 K	430.25
335.1 K	430.54
335.22 K	430.54
335.35 K	430.54
335.47 K	430.54
335.6 K	430.82
335.73 K	430.82
335.85 K	430.82
336.12 K	431.1
336.25 K	430.82
336.38 K	430.82
336.5 K	431.1
336.63 K	431.1
336.75 K	431.1
336.88 K	431.39
337.01 K	431.39
337.13 K	431.39
337.39 K	431.39
337.51 K	431.39
337.64 K	431.39
337.76 K	431.39
337.89 K	431.67
338.02 K	431.67
338.14 K	431.96
338.27 K	431.96
338.39 K	431.96
338.52 K	432.24
338.64 K	432.24
338.91 K	432.24
339.04 K	432.53
339.17 K	432.53
339.29 K	432.53
339.43 K	432.81
339.55 K	432.81
339.68 K	432.81
339.8 K	432.81
339.93 K	433.09
340.19 K	433.09
340.31 K	433.38
340.44 K	433.38
340.56 K	433.38
340.69 K	433.38
340.82 K	433.66
340.94 K	433.66
341.07 K	433.66
341.19 K	433.66
341.32 K	433.95
341.45 K	433.95
341.72 K	434.23
341.85 K	434.23
341.97 K	434.23
342.1 K	434.23
342.22 K	434.23
342.35 K	434.51
342.48 K	434.51
342.6 K	434.51
342.73 K	434.51
343 K	434.8
343.13 K	434.8
343.25 K	434.8
343.38 K	435.08
343.51 K	435.08
343.63 K	435.08
343.76 K	435.37
343.88 K	435.37
344.01 K	435.37
344.13 K	435.37
344.26 K	435.65
344.53 K	435.94
344.66 K	435.65
344.78 K	435.94
344.91 K	435.94
345.03 K	435.94
345.16 K	435.94
345.29 K	436.22
345.42 K	436.5
345.55 K	436.22
345.82 K	436.79
345.95 K	436.5
346.07 K	437.07
346.2 K	436.79
346.32 K	437.07
346.45 K	437.07
346.57 K	437.07
346.7 K	437.07
346.82 K	437.36
346.95 K	437.36
347.08 K	437.64
347.35 K	437.36
347.47 K	437.64
347.6 K	437.64
347.72 K	437.64
347.85 K	437.93
347.97 K	437.93
348.1 K	437.93
348.22 K	437.93
348.35 K	438.21
348.63 K	438.21
348.76 K	438.21
348.88 K	438.49
349.01 K	438.21
349.13 K	438.49
349.26 K	438.49
349.38 K	438.78
349.51 K	438.78
349.63 K	438.78
349.76 K	438.78
349.88 K	439.06
350.19 K	439.35
350.32 K	439.35
350.44 K	439.35
350.57 K	439.35
350.69 K	439.63
350.82 K	439.63
350.94 K	439.63
351.07 K	439.63
351.21 K	439.35
351.49 K	439.91
351.61 K	439.63
351.74 K	439.91
351.86 K	440.2
351.99 K	440.2
352.11 K	440.2
352.24 K	440.2
352.36 K	440.48
352.49 K	440.48
352.61 K	440.48
352.74 K	440.77
353.01 K	440.77
353.13 K	440.77
353.26 K	441.05
353.38 K	441.05
353.51 K	441.34
353.64 K	441.34
